By inhibition is commonly meant the change of the read-out against control, counted positive when it falls.

Structures are written as SMILES. Activity calls are given as the source filed them. The calls are words filed in the database; no cut-off is given here.

The values that follow come from ChEMBL document CHEMBL3045374, “Selective herbicide activity of 2,5-di(benzylamine)-p-benzoquinone against the monocot weed Echinochloa crusgalli. An in vivo analysis of photosynthesis and growth” (2005).

The subject of test [1] is Phaseolus vulgaris. Kind of test: Herbicidal activity against Phaseolus vulgaris using youngest fully expanded leaf assessed as inhibition of CO2 assimilation at 40 uM at 25 to 28 degC measured after 120 hr. It is filed as functional, organism-based.
The subject of test [2] is Echinochloa crus-galli. The test can be described thus: Herbicidal activity against Echinochloa crus-galli (barnyard grass) using youngest fully expanded leaf assessed as inhibition of stomatal conductance at 40 uM at 25 to 28 degC measured after 20 hr. It is filed as functional.
The subject of test [3] is Echinochloa crus-galli. The test can be described thus: Herbicidal activity against Echinochloa crus-galli (barnyard grass) using youngest fully expanded leaf assessed as inhibition of stomatal conductance at 40 uM at 25 to 28 degC measured after 1 hr. It is filed as functional.
Test [4] deals with Echinochloa crus-galli. The test can be described thus: Herbicidal activity against Echinochloa crus-galli (barnyard grass) using youngest fully expanded leaf assessed as inhibition of CO2 assimilation at 40 uM at 25 to 28 degC measured after 24 hr. It is filed as functional.
Test [5] deals with Echinochloa crus-galli. The test can be described thus: Herbicidal activity against Echinochloa crus-galli (barnyard grass) using youngest fully expanded leaf assessed as inhibition of CO2 assimilation at 40 uM at 25 to 28 degC measured after 1 hr. It is filed as functional.
For test [6], the system named is Phaseolus vulgaris. Kind of test: Herbicidal activity against Phaseolus vulgaris using youngest fully expanded leaf assessed as inhibition of stomatal conductance at 40 uM at 25 to 28 degC measured after 120 hr. It is filed as functional, organism-based.
Test [7] deals with Echinochloa crus-galli. The test can be described thus: Herbicidal activity against Echinochloa crus-galli (barnyard grass) using youngest fully expanded leaf assessed as inhibition of CO2 assimilation at 40 uM at 25 to 28 degC measured after 5 days. It is filed as functional, organism-based.
For test [8], the target named is T1, Photosystem I iron-sulfur center (Panicum virgatum) (UniProt G3EFH9).
T1 sequence (whole entry): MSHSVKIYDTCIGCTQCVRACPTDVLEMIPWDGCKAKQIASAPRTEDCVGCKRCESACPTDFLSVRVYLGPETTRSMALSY
The test can be described thus: Inhibition of PSI in Echinochloa crus-galli (barnyard grass) using dark-adapted leaf assessed as photosynthetic electron transport at 40 uM measured after 1 hr by chlorophyll fluorescence induction curve assay.

Test [9] concerns Echinochloa crus-galli. Kind of test: Herbicidal activity against Echinochloa crus-galli (barnyard grass) using youngest fully expanded leaf assessed as stomatal conductance at 40 uM at 25 to 28 degC measured after 120 hr (reference value: 100.7 +/- 8.6 mmol/m'2/s). It is filed as functional.
For test [10], the system named is Echinochloa crus-galli. Kind of test: Herbicidal activity against Echinochloa crus-galli (barnyard grass) using youngest fully expanded leaf assessed as intracellular CO2 concentration at 40 uM at 25 to 28 degC measured after 120 hr (reference value: 171.0 +/- 23.1 uL/L). It is filed as functional.
Test [11] relates to Phaseolus vulgaris. The test can be described thus: Herbicidal activity against Phaseolus vulgaris using youngest fully expanded leaf assessed as intracellular CO2 concentration at 40 uM at 25 to 28 degC measured after 120 hr (reference value: 256.0 +/- 5.8 uL/L). It is filed as functional.
Test [12] deals with Photosystem II reaction center protein M (Pennisetum americanum) (UniProt Q672I5). The test can be described thus: Inhibition of PSII in Echinochloa crus-galli (barnyard grass) using leaf assessed as inhibition of electron transport at 40 uM measured after 7 to 14 days.
The test system of test [13] is Physalis ixocarpa. The test can be described thus: Herbicidal activity against Physalis ixocarpa using youngest fully expanded leaf assessed as inhibition of CO2 assimilation at 40 uM at 25 to 28 degC measured after 120 hr (reference value: 6.3 +/- 0.6 umol/m'2/s). It is filed as functional.
For test [14], the system named is Zea mays. Kind of test: Herbicidal activity against Zea mays (maize) using youngest fully expanded leaf assessed as stomatal conductance at 40 uM at 25 to 28 degC measured after 120 hr (reference value: 103.9 +/- 6.5 mmol/m'2/s). It is filed as functional.
Test [15] relates to Echinochloa crus-galli. The test can be described thus: Herbicidal activity against Echinochloa crus-galli (barnyard grass) using youngest fully expanded leaf assessed as inhibition of CO2 assimilation at 40 uM at 25 to 28 degC measured after 120 hr (reference value: 10.7 +/- 1.1 umol/m'2/s). It is filed as functional.
In test [16] the test system is Phaseolus vulgaris. The test can be described thus: Herbicidal activity against Phaseolus vulgaris assessed as reduction in dry biomass at 40 uM measured after 14 days treatment. It is filed as functional, organism-based.
Test [17] has as its system Zea mays. Kind of test: Herbicidal activity against Zea mays (maize) assessed as reduction in dry biomass at 40 uM measured after 14 days treatment. The conditions noted are these: 336 h. It is filed as functional.
The subject of test [18] is Zea mays. The test can be described thus: Herbicidal activity against Zea mays (maize) using youngest fully expanded leaf assessed as inhibition of CO2 assimilation at 40 uM at 25 to 28 degC measured after 120 hr (reference value: 8 +/- 0.4 umol/m'2/s). It is filed as functional.
Test [19] deals with Physalis ixocarpa. The test can be described thus: Herbicidal activity against Physalis ixocarpa assessed as reduction in dry biomass at 40 uM measured after 14 days treatment. It is filed as functional, organism-based.
In test [20] the target is Photosystem II reaction center protein M (Pennisetum americanum) (UniProt Q672I5). The test can be described thus: Inhibition of PSII in Echinochloa crus-galli (barnyard grass) using dark-adapted leaf assessed as photosynthetic electron transport at 40 uM measured after 1 hr by chlorophyll fluorescence induction curve assay.
Test [21] relates to Zea mays. Kind of test: Induction of chlorophyll a fluorescence curve in Zea mays (maize) leaf relative to control. It is filed as functional, organism-based.
Test [22] has as its system Echinochloa crus-galli. Kind of test: Herbicidal activity against Echinochloa crus-galli (barnyard grass) using youngest fully expanded leaf assessed as inhibition of stomatal conductance at 40 uM at 25 to 28 degC measured after 120 hr. It is filed as functional, organism-based.
Test [23] concerns Phaseolus vulgaris. Kind of test: Herbicidal activity against Phaseolus vulgaris using youngest fully expanded leaf assessed as stomatal conductance at 40 uM at 25 to 28 degC measured after 120 hr (reference value: 161.8 +/- 10 mmol/m'2/s). It is filed as functional.
Another test concerns Fabaceae. The test can be described thus: Induction of chlorophyll a fluorescence curve in Fabaceae (bean) leaf relative to control. It is filed as functional, organism-based.
For test [24], the system named is Physalis ixocarpa. The test can be described thus: Herbicidal activity against Physalis ixocarpa using youngest fully expanded leaf assessed as intracellular CO2 concentration at 40 uM at 25 to 28 degC measured after 120 hr (reference value: 254.0 +/- 8.6 uL/L). It is filed as functional.
In test [25] the test system is Echinochloa crus-galli. The test can be described thus: Herbicidal activity against Echinochloa crus-galli (barnyard grass) assessed as electrolyte leakage at 40 uM measured after 5 days treatment (reference value: 100%). It is filed as functional.
Test [26] concerns Physalis ixocarpa. Kind of test: Herbicidal activity against Physalis ixocarpa using youngest fully expanded leaf assessed as stomatal conductance at 40 uM at 25 to 28 degC measured after 120 hr (reference value: 184.6 +/- 36.6 mmol/m'2/s). It is filed as functional.
The test system of a further test is Solanum lycopersicum. Kind of test: Induction of chlorophyll a fluorescence curve in green Solanum lycopersicum (tomato) leaf relative to control. It is filed as functional, organism-based.
For test [27], the system named is Echinochloa crus-galli. The test can be described thus: Herbicidal activity against Echinochloa crus-galli (barnyard grass) assessed as reduction in dry biomass at 40 uM measured after 14 days treatment. The conditions noted are these: 336 h. It is filed as functional.
Test [28] relates to Echinochloa crus-galli. Kind of test: Herbicidal activity against Echinochloa crus-galli (barnyard grass) assessed as chlorophyll loss at 40 uM measured after 5 days treatment (reference value: 0%). It is filed as functional.
Test [29] addresses T1, Photosystem I iron-sulfur center (Panicum virgatum). The test can be described thus: Inhibition of PSI in Echinochloa crus-galli (barnyard grass) assessed as 50% compound concentration required to accept electrons.
Test [30] concerns Phaseolus vulgaris. Kind of test: Herbicidal activity against Phaseolus vulgaris using youngest fully expanded leaf assessed as inhibition of CO2 assimilation at 40 uM at 25 to 28 degC measured after 120 hr (reference value: 7.2 +/- 0.3 umol/m'2/s). It is filed as functional.
Test [31] relates to Zea mays. The test can be described thus: Herbicidal activity against Zea mays (maize) using youngest fully expanded leaf assessed as intracellular CO2 concentration at 40 uM at 25 to 28 degC measured after 120 hr (reference value: 196.1 +/- 4.9 uL/L). It is filed as functional.

In the case of `C[C@H](NC1=CC(=O)C(N[C@@H](C)[C@H](O)c2ccccc2)=CC1=O)[C@H](O)c1ccccc1`, the inhibition entry in the test on Phaseolus vulgaris [1] and in the test with Phaseolus vulgaris [6] was “inactive” in each case. Moreover, the inhibition at 40 µM in the test with Echinochloa crus-galli [2] was determined as 62%; in the test with Echinochloa crus-galli [3], 45%; in the test on Echinochloa crus-galli [4], 84%; in the test on Echinochloa crus-galli [5] it was 80%.

With `CC(NC1=CC(=O)C(NC(C)c2ccccc2)=CC1=O)c1ccccc1` (configuration not stated), the inhibition result in the test on Phaseolus vulgaris [1] and with Phaseolus vulgaris [6] was “inactive” in each case. Also, the inhibition at 40 µM stood at 62% in the test with Echinochloa crus-galli [2], 45% in the test on Echinochloa crus-galli [3], 84% with Echinochloa crus-galli [4] and 80% in the test on Echinochloa crus-galli [5].

`O=C1C=C(Nc2ccccc2)C(=O)C=C1Nc1ccccc1`: the inhibition entry in the test on Phaseolus vulgaris [1] and in the test with Phaseolus vulgaris [6] was “inactive” throughout. Also, the inhibition entry with Echinochloa crus-galli [7] was “Active”. Besides, the inhibition at 40 µM is 62% in the test with Echinochloa crus-galli [2], 45% with Echinochloa crus-galli [3], 84% in the test with Echinochloa crus-galli [4] and 80% with Echinochloa crus-galli [5].

As for `O=C1C=C(NCc2ccccc2)C(=O)C=C1NCc1ccccc1`, the inhibition entry (in [8]; with Echinochloa crus-galli [22]) was “Active” each time. The Activity turned out to be 75.3 mmol/m2/s with Echinochloa crus-galli [9]; 221 uL/L in the test with Echinochloa crus-galli [10]; 254 uL/L in the test with Phaseolus vulgaris [11]; 5.6 micromol/m2/s in the test on Physalis ixocarpa [13]; 82.4 mmol/m2/s with Zea mays [14]; 4.2 micromol/m2/s in the test on Echinochloa crus-galli [15]. Further, the Activity was found to be 7.2 micromol/m2/s in the test with Zea mays [18]; 150 mmol/m2/s in the test on Phaseolus vulgaris [23]; 254.3 uL/L in the test with Physalis ixocarpa [24]; 135.6% in the test on Echinochloa crus-galli [25]; 151.2 mmol/m2/s with Physalis ixocarpa [26]; 3.5% in the test on Echinochloa crus-galli [28]. For the same molecule, the Activity stood at 0.23 µM in test [29], 7 micromol/m2/s with Phaseolus vulgaris [30] and 212 uL/L with Zea mays [31]. Moreover, the inhibition in test [12] was 44%. Besides, the inhibition entry (in the test with Phaseolus vulgaris [1]; in the test on Phaseolus vulgaris [16]; in the test on Physalis ixocarpa [19]; in [20]; in the test with Phaseolus vulgaris [6]) was “inactive” each time. Further, the inhibition at 40 µM with Zea mays [17] turned out to be 60%; with Echinochloa crus-galli [2], 62%; in the test with Echinochloa crus-galli [3], 45%; in the test on Echinochloa crus-galli [27], 76.5%; with Echinochloa crus-galli [4], 84%; in the test on Echinochloa crus-galli [5], 80%. For the same molecule, the result in the test with Zea mays [21], in the test on Fabaceae and in the test with Solanum lycopersicum was inactive.

For `O=C1C=C(Nc2ccccc2O)C(=O)C=C1Nc1ccccc1O`, the inhibition result in the test with Phaseolus vulgaris [1] and in the test with Phaseolus vulgaris [6] was “inactive” throughout. The inhibition entry in the test with Echinochloa crus-galli [7] was “Active”. Besides, the inhibition at 40 µM in the test on Echinochloa crus-galli [2] came out at 62%; in the test with Echinochloa crus-galli [3] it was 45%; in the test on Echinochloa crus-galli [4], 84%; with Echinochloa crus-galli [5], 80%.

For `COc1ccccc1NC1=CC(=O)C(Nc2ccccc2OC)=CC1=O`, the inhibition result with Phaseolus vulgaris [1] and in the test on Phaseolus vulgaris [6] was “inactive” throughout. Moreover, the inhibition at 40 µM in the test on Echinochloa crus-galli [2] was 62%; in the test on Echinochloa crus-galli [3], 45%; in the test with Echinochloa crus-galli [4], 84%; in the test with Echinochloa crus-galli [5], 80%.

As to `C[n+]1ccc(-c2cc[n+](C)cc2)cc1` [PARAQUAT], the Activity in the test on Echinochloa crus-galli [25] came out at 438.59%; with Echinochloa crus-galli [28], 44.3%; in [29], 110 µM.
